Assays:
Rattus norvegicus [1] = experiment: Cmax in rat at 2 mg/kg, iv; format: ADME, organism-based; parameters: dose 2 mg/kg, route intravenous; details: in vivo
Rattus norvegicus [2] = experiment: Volume of distribution at steady state in rat at 2 mg/kg, iv; format: ADME, organism-based; parameters: dose 2 mg/kg, route intravenous; details: in vivo
Rattus norvegicus [3] = experiment: AUC (0 to t) in rat at 2 mg/kg, iv; format: ADME, organism-based, Plasma; parameters: dose 2 mg/kg, route intravenous; details: in vivo
Plasma = experiment: Plasma concentration in rat at 20 mg/kg, po; format: ADME, organism-based; parameters: dose 20 mg/kg, route oral; details: in vivo
Brain = experiment: Drug uptake in rat brain at 20 mg/kg, po; format: ADME, organism-based; parameters: dose 20 mg/kg, route oral; details: in vivo, read-out: Drug uptake
Rattus norvegicus [4] = experiment: AUC (0 to t) in rat at 20 mg/kg, po; format: ADME, organism-based, Plasma; parameters: dose 20 mg/kg, route oral; details: in vivo
Rattus norvegicus [5] = experiment: Tmax in rat at 20 mg/kg, po; format: ADME, organism-based; parameters: dose 20 mg/kg, route oral; details: in vivo
Rattus norvegicus [6] = experiment: Cmax in rat at 20 mg/kg, po; format: ADME, organism-based; parameters: dose 20 mg/kg, route oral; details: in vivo
[7] = Tmax in rat at 10 mg/kg, ip; format: ADME, organism-based; parameters: dose 10 mg/kg, route intraperitoneal; details: in vivo
Nucleic Acid = experiment: Ratio of drug uptake from brain to plasma in rat after 30 mins; format: ADME; details: 0.5 h

Cmax (Rattus norvegicus [1]) [µM] | Vdss (Rattus norvegicus [2]) [L/kg] | AUCt (Rattus norvegicus [3]) [µmol·min/L] | concentration (Plasma) [µM] | concentration (Brain) [µM] | AUCt (Rattus norvegicus [4]) [µmol·min/L] | Tmax (Rattus norvegicus [5]) [min] | Cmax (Rattus norvegicus [6]) [µM] | Tmax [7] [min] | BPR (Nucleic Acid) | Structure (SMILES)
5 | 0.81 | 231.7 | 5.29 | 1.12 | 544.8 | 135 | 2.57 |  |  | Cc1c(OCCCCOc2ccc(C(=O)O)cc2)ccc(C(=O)CC(C)C)c1O
3.52 | 0.89 | 123.7 | 4.23 | 0.23 | 720.5 | 30 | 12.5 |  |  | Cc1c(OCCCCOc2ccc(F)c(C(=O)O)c2)ccc(C(=O)CC(C)C)c1O
6.43 | 0.55 | 304.6 | 16.4 | 0.81 | 1274.6 | 90 | 2.75 | 30 |  | COc1cc(C(=O)O)ccc1OCCCCOc1ccc(C(=O)CC(C)C)c(O)c1C
2.15 | 2.87 | 77.2 |  |  | 466.2 | 96 | 1.05 |  |  | COc1ccc(C(=O)O)cc1OCCCCOc1ccc(C(=O)CC(C)C)c(O)c1C
 |  |  |  |  |  |  |  | 30 |  | CCC(=O)c1ccc(OCCCCOc2ccc(F)c(C(=O)O)c2)c(C)c1O
 |  |  |  |  |  |  |  | 30 |  | CCCC(=O)c1ccc(OCCCCOc2cc(C(=O)O)ccc2OC)c(C)c1O
 |  |  |  |  |  |  |  | 30 |  | COc1ccc(C(=O)O)cc1OCCCCOc1ccc(C(=O)CC(C)(C)C)c(O)c1C
 |  |  |  |  |  |  |  | 30 | 0.02 | COc1cc(C(=O)O)ccc1OCCCCOc1ccc(C(=O)CC(C)(C)C)c(O)c1C
 |  |  |  |  |  |  |  | 30 |  | Cc1c(OCCCCOc2ccc(C(=O)CC(C)(C)C)c(O)c2C)cccc1C(=O)O
 |  |  |  |  |  |  |  | 30 |  | Cc1c(OCCCCOc2ccc(F)c(C(=O)O)c2)ccc(C(=O)CC(C)(C)C)c1O
